Reference: US20240366582A1, “TREATMENT OF RAYNAUD'S DISEASE” (Aisa Pharma, Inc., priority 2020, published 2024)

Columns and labels:
[1] = tested on: Raynaud's Phenomenon (RP) attacks in participants with SSc-RP; assay: Average duration of weekly RP attacks (symptomatic / all attacks), patient diary, Phase 2a Part A; assay type: in vivo, human; conditions: for Average Duration of Weekly RP Attacks (All Attacks), Baseline, Mean / Average Duration of Weekly RP Attacks (All Attacks), Baseline, Median / Average Duration of Weekly RP Attacks (All Attacks), Average Duration, Mean / Average Duration of Weekly RP Attacks (All Attacks), Average Duration, Median: ITT Population-Part A; for Average Duration of Weekly RP Attacks (All Attacks), Baseline, Mean / Average Duration of Weekly RP Attacks (All Attacks), Baseline, Median: last 7 days of screening period, before dosing; for Average Duration of Weekly RP Attacks (All Attacks), Average Duration, Mean / Average Duration of Weekly RP Attacks (All Attacks), Average Duration, Median: last 7 days of the dosing period
Text: (§1) The Sponsor-developed participant-informed E-Diary has been and will be used in this study to record data. Participants have been or will be required to keep and fill the E-Diary daily as delineated in the SoAs ((FIG. 2 and FIG. 3A and/or FIG. 3B). • The relevant metrics measured by this tool daily are: • Study medication • SSc-RP symptoms (Reporting an attack including duration of attack) • Severity of the attack considering all symptoms of the attack e.g. tingling, numbness, pain, color changes (VAS 0-10 cm scale) • Participant's location at the time of the attack (inside home/outside home) • Selecting symptoms experienced during the attack (tingling, numbness, pain, color changes, other) • Pain rating during the attack (11-point Likert scale) • The RCS based on how much difficulty participants had with Raynaud's today, how many attacks the participant had, and how long they lasted. Participants will also be asked to consider how much pain, numbness, or other symptoms the Raynaud's caused in fingers (including painful sores), and how much the Raynaud's alone affected the use of hands today (VAS 0-10 cm scale). • The relevant metrics measured by this tool at the in-clinic visit (once in a Dosing Period) are: • Digital ulcer severity (VAS 0-10 cm scale)—Applicable only if participant has digital ulcers. • Scleroderma Health Assessment Questionnaire which includes Raynaud's VAS measuring participant quality of life over the past • Note: Digital ulcer severity (VAS 0-10 cm scale) and SHAQ scale can also be done on paper in-clinic, if necessary. Also, external temperature will be a feed into the E-Diary database based on participant's location.
The absolute change in average duration of weekly RP attacks from baseline to the end of each dosing period was and will be a secondary outcome variable. The sponsor-developed participant-informed diary was and will be used to record data. Average duration of weekly RP attacks is defined as the total duration of RP attacks divided by total number of RP attacks within the last 7 days of each dosing period. Total duration of RP attacks during the last 7 days of screening period divided by the total number of RP attacks will be used as baseline for the analysis of all periods. The variable will be calculated similar to frequency data as before.
The following data was actually obtained in accordance with the protocol and plan delineated in Examples 1 and 2. The accompanying data involved 11 patients out of the planned 76 patient study. The study was done in patients with scleroderma (systemic sclerosis) who had relatively frequent Raynaud symptoms as they needed to average at least one attack per day during a screening period of up to two weeks. In this first phase of this double-blind placebo-controlled, prospective randomized study, patients were treated in parallel and after meeting study criteria were randomized to receive either placebo, cilnidipine 10 mg daily, cilnidipine 20 mg daily, tadalafil 5 mg daily, cilnidipine 10 mg plus 5 mg of tadalafil, or cilnidipine 20 mg plus 5 mg of tadalafil.

[2] = tested on: Raynaud's Phenomenon (RP) attacks in participants with SSc-RP; assay: Frequency of weekly RP attacks (symptomatic attacks / all attacks), patient diary, Phase 2a Part A; assay type: in vivo, human
Description: A randomized, placebo-controlled phase 2a study was performed and is in progress to assess the safety and efficacy of cilnidipine (10 mg and 20 mg) alone and in combination with 5 mg tadalafil, in participants with diagnosis of secondary Raynaud's disease.
Part A-Double-blind, Placebo-controlled, Parallel-group, Dose selection, will assess the safety and efficacy of two doses of cilnidipine (10 mg and 20 mg), alone and in combination with tadalafil. A total of 36 participants will be randomized to one of six pre-specified treatment arms. See Example 3 for data obtained in this phase of the study thus far, on 11 participants.
The Sponsor-developed participant-informed E-Diary has been and will be used in this study to record data. […]

[3] = tested on: Raynaud's Phenomenon (RP) attacks in participants with SSc-RP; assay: Average severity of weekly RP attacks (VAS 0-10; symptomatic / all attacks), patient diary, Phase 2a Part A; assay type: in vivo, human; conditions: for Average Severity of Weekly Symptomatic RP Attacks, Mean: Pooled Cilnidipine 20 mg and Cilnidipine 20 mg + Tadalafil 5 mg, severity (0-10), ITT Population - Part A
Text: as §1
The absolute change in average severity of weekly RP attacks (VAS 0-10 cm scale) from baseline to the end of each Dosing Period was and will be a secondary outcome variable. The sponsor-developed participant-informed diary will be used to record data. […] The variable will be calculated similar to frequency data as before. […]

[4] = in vivo; cited from earlier work
Nav 1.7 sodium channel = Nav 1.7 sodium channel (Homo sapiens, UniProt Q15858); conditions: see WO 2021/178903; cited from earlier work
Nav 1.7 sodium channel, sequence (Q15858 whole entry): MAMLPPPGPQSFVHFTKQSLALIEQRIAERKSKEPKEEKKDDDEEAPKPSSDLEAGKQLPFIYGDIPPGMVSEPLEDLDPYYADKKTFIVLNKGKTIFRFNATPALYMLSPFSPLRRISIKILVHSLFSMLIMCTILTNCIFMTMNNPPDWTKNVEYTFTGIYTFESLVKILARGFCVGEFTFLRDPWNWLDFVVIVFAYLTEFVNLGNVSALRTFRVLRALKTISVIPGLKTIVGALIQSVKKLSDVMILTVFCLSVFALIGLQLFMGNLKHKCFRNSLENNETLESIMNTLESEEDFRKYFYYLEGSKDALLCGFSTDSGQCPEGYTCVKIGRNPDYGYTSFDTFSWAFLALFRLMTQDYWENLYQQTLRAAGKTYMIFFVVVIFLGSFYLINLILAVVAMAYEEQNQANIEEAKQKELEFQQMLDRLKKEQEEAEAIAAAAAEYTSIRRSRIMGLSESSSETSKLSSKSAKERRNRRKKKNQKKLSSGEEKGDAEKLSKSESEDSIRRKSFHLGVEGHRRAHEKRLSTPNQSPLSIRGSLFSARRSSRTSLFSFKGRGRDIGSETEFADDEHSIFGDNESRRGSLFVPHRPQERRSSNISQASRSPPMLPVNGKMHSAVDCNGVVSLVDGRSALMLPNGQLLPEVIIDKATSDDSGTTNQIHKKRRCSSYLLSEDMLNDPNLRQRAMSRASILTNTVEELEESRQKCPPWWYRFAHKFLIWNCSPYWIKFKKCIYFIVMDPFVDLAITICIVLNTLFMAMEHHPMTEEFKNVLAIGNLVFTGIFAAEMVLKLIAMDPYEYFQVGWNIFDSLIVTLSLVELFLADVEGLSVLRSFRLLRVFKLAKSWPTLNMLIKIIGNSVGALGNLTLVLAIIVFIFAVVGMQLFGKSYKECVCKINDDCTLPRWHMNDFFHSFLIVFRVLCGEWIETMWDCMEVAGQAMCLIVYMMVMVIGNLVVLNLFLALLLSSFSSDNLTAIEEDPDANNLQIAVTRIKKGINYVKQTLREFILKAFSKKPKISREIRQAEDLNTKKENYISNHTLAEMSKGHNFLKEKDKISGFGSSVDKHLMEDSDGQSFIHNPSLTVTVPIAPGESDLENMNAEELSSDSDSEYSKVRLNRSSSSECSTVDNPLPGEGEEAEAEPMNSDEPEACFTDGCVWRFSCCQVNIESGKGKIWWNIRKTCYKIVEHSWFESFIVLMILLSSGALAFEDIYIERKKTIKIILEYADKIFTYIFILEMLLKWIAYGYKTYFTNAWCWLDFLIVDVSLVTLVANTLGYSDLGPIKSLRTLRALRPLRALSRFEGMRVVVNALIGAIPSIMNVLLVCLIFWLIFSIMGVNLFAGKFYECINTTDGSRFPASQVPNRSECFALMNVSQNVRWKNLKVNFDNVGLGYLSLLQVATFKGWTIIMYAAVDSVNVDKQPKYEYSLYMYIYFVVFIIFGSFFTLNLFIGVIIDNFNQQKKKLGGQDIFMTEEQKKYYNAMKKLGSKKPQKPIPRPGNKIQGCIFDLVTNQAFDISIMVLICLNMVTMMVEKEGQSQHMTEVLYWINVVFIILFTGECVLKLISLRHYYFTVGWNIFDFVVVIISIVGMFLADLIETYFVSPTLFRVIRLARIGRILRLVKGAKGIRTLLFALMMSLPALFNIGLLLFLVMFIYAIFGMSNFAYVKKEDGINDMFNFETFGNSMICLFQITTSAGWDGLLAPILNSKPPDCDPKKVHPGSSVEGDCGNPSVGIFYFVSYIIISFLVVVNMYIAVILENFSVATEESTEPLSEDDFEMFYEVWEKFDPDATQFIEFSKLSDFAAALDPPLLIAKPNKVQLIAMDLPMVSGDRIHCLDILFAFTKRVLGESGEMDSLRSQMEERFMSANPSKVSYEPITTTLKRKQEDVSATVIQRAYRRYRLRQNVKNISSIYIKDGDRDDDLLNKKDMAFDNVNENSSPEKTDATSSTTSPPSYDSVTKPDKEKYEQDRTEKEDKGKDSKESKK

[5] = by Baseline RCS, second subgroup (r96-r180, RCS category not given)
[6] = by Baseline RCS, first subgroup (RCS category not given)

| Structure (SMILES) | Average Duration of Weekly RP Attacks (All Attacks), Baseline, Mean ([1]; Excluding Outliers) [min] | Average Duration of Weekly RP Attacks (All Attacks), Baseline, Median ([1]; Excluding Outliers) [min] | Average Duration of Weekly RP Attacks (All Attacks), Baseline, Mean [1] [min] | Average Duration of Weekly RP Attacks (All Attacks), Baseline, Median [1] [min] | Average Duration of Weekly RP Attacks (All Attacks), Baseline, Mean [1, 6] [min] | Average Duration of Weekly RP Attacks (All Attacks), Baseline, Median [1, 6] [min] | also measured |
| --- | --- | --- | --- | --- | --- | --- | --- |
| CN1CC(=O)N2[C@H](c3ccc4c(c3)OCO4)c3[nH]c4ccccc4c3C[C@@H]2C1=O [Tadalafil 5 mg] | 10.92 | 10.92 |  |  |  |  | Average Duration of Weekly RP Attacks (All Attacks), Baseline, Mean [1, 5]: 320.46 min; Average Duration of Weekly RP Attacks (All Attacks), Baseline, Median [1, 5]: 320.46 min |
| COCCOC(=O)C1=C(C)NC(C)=C(C(=O)OC/C=C/c2ccccc2)C1c1cccc([N+](=O)[O-])c1 (stereo not drawn) [Cilnidipine 10 mg] | 40.00 | 40.00 | 40.00 | 40.00 | 40.00 | 40.00 |  |
| COCCOC(=O)C1=C(C)NC(C)=C(C(=O)OC/C=C/c2ccccc2)C1c1cccc([N+](=O)[O-])c1 (stereo not drawn) [Cilnidipine 20 mg] | 17.81 | 17.81 | 17.81 | 17.81 | 17.81 | 17.81 |  |
| COCCOC(=O)C1=C(C)NC(C)=C(C(=O)OC/C=C/c2ccccc2)C1c1cccc([N+](=O)[O-])c1 (stereo not drawn) [Pooled Cilnidipine] | 25.21 | 25.00 |  |  | 25.21 | 25.00 | Average Duration of Weekly RP Attacks (All Attacks), Average Duration, Mean ([1]; Excluding Outliers): 21.66 min; Average Duration of Weekly RP Attacks (All Attacks), Average Duration, Median ([1]; Excluding Outliers): 30.45 min; Average Duration of Weekly RP Attacks (All Attacks), Average Duration, Mean [1, 6]: 21.66 min; Average Duration of Weekly RP Attacks (All Attacks), Average Duration, Median [1, 6]: 30.45 min |
| COCCOC(=O)C1=C(C)NC(C)=C(C(=O)OC/C=C/c2ccccc2)C1c1cccc([N+](=O)[O-])c1 (stereo not drawn) [Cilnidipine, cilnidipine, reference compound] |  |  |  |  |  |  | patients in whom average frequency of Raynaud's attacks decreased more than 25% ([2]; all cilnidipine and cilnidipine plus tadalafil treated patients together (n=7)): 6 of 7; change in weekly frequency of Raynaud attacks (in words) ([2]; cilnidipine and cilnidipine plus tadalafil treated patients (n=7), tadalafil alone, milder and more severe disease): decrease; change in duration of Raynaud attacks (in words) ([1]; cilnidipine or cilnidipine plus tadalafil (n=7), tadalafil monotherapy (n=2)): decrease greater than that seen in placebo treated patients; Average Severity of Weekly Symptomatic RP Attacks, Mean ([3]; Excluding Outliers): 3.40; Average Severity of Weekly Symptomatic RP Attacks, Mean [3]: 3.40; change in severity of attacks (in words) ([3]; cilnidipine monotherapy (n=3), cilnidipine plus tadalafil (n=4) vs tadalafil monotherapy (n=2)): 20 mg reducing severity more than 10 mg; Tmax (time to achieve maximal plasma concentrations) [4]: 2 h; activity against the Nav 1.7 sodium channel (Nav 1.7 sodium channel): has activity |
| CCOC(=O)C1=C(COCCN)NC(C)=C(C(=O)OC)C1c1ccccc1Cl (stereo not drawn) [amlodipine] |  |  |  |  |  |  | time to reach maximal plasma concentrations [4]: 10 h |
